Read-outs that look alike come from different tables or passages of the source.
How the values were obtained:
[1] = test system: Npc1^nih/nih mice; settings: cited from earlier work
[2] = test system: Npc1^nmf164 mice; parameters: method as in PMID 26888431; settings: HPβCD full dose 4000 mg/kg; cited from earlier work
[3] = cited from earlier work
[4] = test system: Npc1^nmf164 mice; test: Early intervention efficacy study (treatment from 2 weeks of age); format: in vivo; settings: for Mean bodyweight: Npc1^nmf164 mice, 800 mg/kg SC weekly
Description: Control group mice received plain PBS (sham, group).
The body weight was recorded weekly and a score ranging from 0 to 5 was assigned to each mouse (Table 3) as previously performed. The motor co-ordination phenotype was assessed by the balance beam test every two weeks as previously described. Briefly, the mouse was placed perpendicularly at the center of a horizontal round beam (covered with paper tape, outer diameter 2 cm, length 1 m, divided into 10 sections and placed 50 cm above a padded surface) and the number of beam sections crossed in a 180 s time interval was recorded. Although the test relies on muscle strength and limb tone, it is well validated for the assessment of fine motor coordination and balance. […] The end-point of data collection was established as mouse weight approaching 13 g[40].

[5] = Pharmacokinetics after single intravenous dose (100 mg/kg); format: in vivo, BALB/c mice; settings: BALB/c, mouse
Description: (§1) LC/MS/MS (HPβCD) and HPLC-UV (ORX-301) were used for analysis in the studies. The bioanalytical method for HPβCD was linear, accurate, and precise in the concentration range of 5.4 and 500 µg/ml, with an LLOQ = 5.4 µg/ml, and met all the acceptance criteria.
(§2) Pharmacokinetic analysis and MTD studies were carried out in BALB/c mice purchased from Taconic Biosciences. Protocols and procedures of these studies were approved by the Institutional Animal Ethics Committee based on CPCSEA (India) guidelines.
(§3) Plasma was harvested and stored at −80 °C.

[6] = Pharmacokinetics after single subcutaneous dose (500 mg/kg); format: in vivo, BALB/c mice; settings: BALB/c, mouse, plasma
Description: as §1, §2, §3

[7] = test system: Calbindin in Purkinje cells of Npc1^nmf164 mice; test: Calbindin detection by immunofluorescence on cerebellar sections; format: in vivo; settings: 10 weeks-old Npc1^nmf164 mice, 800 mg/kg SC weekly from 2 weeks
Description: Sham-treated control mice were injected with plain PBS.
Brains were quickly dissected, fixed overnight at 4 °C in 4% PFA and processed as previously described[52]. Briefly, fixed brains were dehydrated by incubation in 15–30% sucrose in PBS, embedded in FSC 22 Clear Frozen Section Compound (Leica Biosystems, Milano, Italy) and serially sectioned (slice thickness 10 µm) using a cryostat (Leica CM 1900). Sagittal sections were mounted on X-tra Adhesive glass slides (Leica biosystems). Sections were processed for immunofluorescence using a mouse monoclonal Calbindin antibody (Anti-Calbindin D28K, Sigma, Milan, Italy; 1:500 dilution in PBS) as routinely performed in our lab. A permeabilization step performed by incubating sections in 0.1% Triton X-100 in PBS for 10 min was followed by a 3 h incubation in a blocking solution containing 5% goat serum, 1% BSA, 0.2% Triton X-100 in PBS. Sections were then incubated over night with a 1:500 primary antibody dilution in PBS and, after several washes with PBS, with a TRITC-conjugated anti-mouse secondary antibody (Zymed-Thermo Fisher Scientific, Milan, Italy).

[8] = in vivo; settings: BALB/c, mouse, sc, 500 mg/kg; for AUC(0-t): AUClast; for Kp: Tissue/Plasma Ratio
Description: The vehicle used for dissolution of test compounds was 0.9% Normal Saline. […] The formulations were prepared on the day of the study. The test compounds were administered at 100 mg/kg for the IV study and 500 mg/kg for the SC study. For the tissue distribution study, again 500 mg/kg was administered by the SC route.
Post dose, blood, or the relevant tissue in the case of the distribution study was collected at time points of 2 min, 5 min, 15 min, 30 min, 1 h, 2 h, 4 h, 24 h, 36 h and 48 h. From each mouse terminal blood samples were collected by cardiac puncture under isoflurane anaesthesia. The blood was collected in 2 ml Eppendorf tubes containing 0.020 ml of 10% K2EDTA, mixed gently and placed in ice before centrifugation. Plasma was harvested and stored at −80 °C. […] The PK analysis was performed using Non-compartmental methods in Phoenix WinNonlin 6.4 [Pharsight, Certara]. The mean concentration-time data were used for computing the PK parameters. The AUC was computed using the linear up-log down method. The following NCA parameters were estimated for the IV PK: Systemic Clearance [CL], Vss [Volume of distribution at steady state], first order elimination rate constant [ke], terminal half-life [t1/2], AUC0-t, AUC0-∞. For the SC PK study: Cmax, tmax, ke, t1/2, AUC0-t, AUC0-∞ and the absolute SC bioavailability [F] was estimated using the equation: F(%)=(AUCsc/AUCiv)∗(Doseiv/Dosesc)∗100

[9] = 800 mg/kg SC weekly from 2 weeks of age

Structure (SMILES): CC(O)COC[C@H]1O[C@@H]2O[C@H]3[C@H](O)[C@@H](O)[C@@H](O[C@H]4[C@H](O)[C@@H](O)[C@@H](O[C@H]5[C@H](O)[C@@H](O)[C@@H](O[C@H]6[C@H](O)[C@@H](O)[C@@H](O[C@H]7[C@H](O)[C@@H](O)[C@@H](O[C@H]8[C@H](O)[C@@H](O)[C@@H](O[C@H]1[C@H](O)[C@H]2O)O[C@@H]8COCC(C)O)O[C@@H]7COCC(C)O)O[C@@H]6COCC(C)O)O[C@@H]5COCC(C)O)O[C@@H]4COCC(C)O)O[C@@H]3COCC(C)O (stereo partly drawn) [HPβCD, 2-hydroxypropyl-β-cyclodextrin]
- effect on lifespan ([1]; single injection at day 49, Npc1^nih/nih mice): did not significantly improve the lifespan
- dosage required for improvement of survival ([1]; weekly injections started at day 42, Npc1^nih/nih mice): at least 1000 mg/kg
- mean lifespan [2]: 170 to 180 days
- fraction that reaches the brain upon systemic administration ([3]; ref 25, 53): 0.2–1.5%
- fraction that reaches the brain upon systemic administration ([3]; ref 25): less than 0.2%
- body weight loss progression [4, 9]: less severe and slower progressing weight loss
- improvement of performance in the balance beam test [4, 9]: only temporarily observed up to 9-weeks of age
- mean lifespan [4, 9]: 150 ± 2.55 days
- improvement in mean survival ([4]; 800 mg/kg SC weekly from 2 weeks of age, vs sham-treated): 35%
- Mean bodyweight ([4]; post-natal week 2): 7.43 ± 0.30 g
- Mean bodyweight ([4]; post-natal week 3): 10.37 ± 0.33 g
- Mean bodyweight ([4]; post-natal week 4): 13.31 ± 0.53 g
- Mean bodyweight ([4]; post-natal week 5): 17.24 ± 0.65 g
- Mean bodyweight ([4]; post-natal week 6): 18.58 ± 0.75 g
- Mean bodyweight ([4]; post-natal week 7): 20.25 ± 0.84 g
- Mean bodyweight ([4]; post-natal week 8): 20.85 ± 0.94 g
- Mean bodyweight ([4]; post-natal week 9): 20.55 ± 1.03 g
- Mean bodyweight ([4]; post-natal week 10): 19.92 ± 0.81 g
- concentration at 24 h ([5]; in vivo, iv, 100 mg/kg): 4.95 µg/mL
- tlast ([5]; in vivo, iv, 100 mg/kg): 24 h
- bioavailability ([5]; plasma, 500 mg/kg, printed under the Intravenous columns, read-out: Absolute Bioavailability): 42%
- half-life ([5]; plasma, iv, 100 mg/kg, intravenous 100 mg/kg): ~14 h
- clearance ([5]; plasma, single IV dose 100 mg/kg): 0.85 mL/min/kg
- Vd ([5]; plasma, single IV dose 100 mg/kg, read-out: Vss): 0.18 L/kg
- AUC(0-inf) ([5]; intravenous 100 mg/kg, plasma): 1960 µg·h/mL
- AUC(0-t) ([5]; intravenous 100 mg/kg, plasma): 1860 µg·h/mL
- Tmax ([5]; intravenous 100 mg/kg, plasma): 4.98 min
- bioavailability ([6]; subcutaneous 500 mg/kg vs intravenous 100 mg/kg, read-out: Absolute Bioavailability): 42%
- AUC(0-inf) ([6]; sc, subcutaneous 500 mg/kg): 4140 µg·h/mL
- AUC(0-t) ([6]; sc, subcutaneous 500 mg/kg): 4020 µg·h/mL
- Cmax ([6]; sc, subcutaneous 500 mg/kg): 4610 µg/mL
- Tmax ([6]; sc, subcutaneous 500 mg/kg): 4.98 min
- half-life ([6]; sc, subcutaneous 500 mg/kg): 16.7 h
- Calbindin staining of Purkinje cells [7]: markedly reduced Calbindin staining
- AUC(0-t) ([8]; kidney): 2950 µg·h/mL
- AUC(0-t) ([8]; liver): 127 µg·h/mL
- AUC(0-t) ([8]; spleen): 828 µg·h/mL
- Kp ([8]; kidney): 0.63
- Kp ([8]; liver): 0.03
- Kp ([8]; spleen): 0.18
